A short description of data set [1]: ProGem1 phase I study in subjects with advanced solid malignancies. It is filed as in vivo, human. The text has this: ProGem1 was a first-time-in-human (FTIH), phase I, open label, two stage study to investigate the safety, tolerability, clinical efficacy, pharmacokinetics (PK) and pharmacodynamics (PD) of NUC-1031 given in two parallel dosing schedules in subjects with advanced solid malignancies (EudraCT Number: 2011-005232-26). Subjects had the following tumour types at study entry: colorectal cancer (7 subjects), unknown primary (3), ovarian cancer (12), breast cancer (4), pancreatic cancer (9), cholangiocarcinoma (7), endometrial cancer (3), cervical cancer (2), lung cancer (7), mesothelioma (3), oesophageal cancer (3), cancer of the fallopian tube (1), trophoblast (1), renal cancer (1), gastric cancer (1), anal cancer (1), cancer of the thymus (1) and osteosarcoma (1).

The test system of the next data set is SK-OV-3. The data set is described as follows: Single agent cytotoxicity assay (CellTiter-Glo). Type of data set: cell-based. To be noted: 72 h; for IC50: Homo sapiens, SK-OV-3, SK-OV3, CTG assay. As for the experimental part: (§1) A2780, SK-OV-3, OVCAR-3, NCI-H460, NCI-H1975, NCI-H2122, 5637 and HT1376 were cultured in RPMI Medium 1640 (Invitrogen-22400105) supplemented with 10% fetal bovine serum (FBS; Invitrogen-10099141). All the cell lines were maintained in a humidified incubator at 37° C. with 5% CO2. Cell culture media and supplements were purchased from Invitrogen, and tissue culture flasks were purchased from Corning, 96-well plates and 384-well plates were purchased from Greiner. CellTiter-Glo Luminescent Cell Viability Assay kits were purchased from Promega (Promega-G7573), cells counter Vi-Cell was purchased from Beckman, detection instrument Envision was purchased from PerkinElmer.
(§2) Paclitaxcel (used as a reference) and cisplatin were purchased from SELLECK, and they were of highest purity available. All compounds attained solubility in DMSO and when diluted into culture media. DMSO, compounds solutions and culture media were warmed to 37° C. for the solution preparation and dilutions.
(§3) Eight cell lines were allowed to adhere to 96-well plates overnight (100 μL/well), for drug treatments with 3.16 fold dilution, 9 dose points, triplicates or vehicle control, compound stock solutions were prepared in DMSO and added to the wells to give the indicated final drug concentrations. Final DMSO concentration was 0.5%. Cellular ATP concentrations were assessed by using the CellTiter-Glo Cell Viability Assay as per the manufacturer's instructions 72 h after drug addition.
(§4) Stage 1: Single Agent IC50 Determination
(§5) In Stage 1 the IC50 (using 5 or more concentrations) of each individual compound cisplatin, carboplatin, gemcitabine and NUC-1031) in the relevant cell lines was determined.

The next data set has as its system OVCAR-3. In words: Single agent cytotoxicity assay (CellTiter-Glo). It is filed as cell-based. Conditions: CTG assay, 72 h; for IC50: Homo sapiens. How it is done:
as §1, §2, §3, §4, §5

The test system of the next data set is NCI-H460. The data set is described as follows: Single agent cytotoxicity assay (CellTiter-Glo). It is filed as cell-based. To be noted: CTG assay, 72 h; for IC50: Homo sapiens. How it is done:
as §1, §2, §3, §4, §5

Another data set relates to HT1376. In words: Single agent cytotoxicity assay (CellTiter-Glo). Conditions: 72 h; for IC50: Homo sapiens, HT-1376, CTG assay. Type of data set: cell-based. As for the experimental part:
as §1, §2, §3, §4, §5

The next data set has as its system NCI-H1975. The data set is described as follows: Single agent cytotoxicity assay (CellTiter-Glo). Type of data set: cell-based. To be noted: CTG assay, 72 h; for IC50: Homo sapiens. How it is done:
as §1, §2, §3, §4, §5

The next data set concerns A2780. The data set is described as follows: Single agent cytotoxicity assay (CellTiter-Glo). Type of data set: cell-based. To be noted: CTG assay, 72 h; for IC50: Homo sapiens. How it is done: as §1, §2, §3, §4, §5
The next data set deals with 5637. The data set is described as follows: Single agent cytotoxicity assay (CellTiter-Glo). Conditions: CTG assay, 72 h. It is filed as cell-based. How it is done:
as §1, §2, §3, §4, §5

The record followed here is patent US20190381084A1, “COMBINATION THERAPY” (NUCANA BIOMED LIMITED, priority 2015, published 2019).

Where two headings read alike, the source gives them in different places. Where only a bound is given, the exact number is not on record here.

With `C[C@H](NP(=O)(OC[C@H]1O[C@@H](n2ccc(N)nc2=O)C(F)(F)[C@@H]1O)Oc1ccccc1)C(=O)OCc1ccccc1` (stereo partly drawn) [NUC-1031, 2′-Deoxy-2′,2′-difluoro-D-cytidine-5′-O-[phenyl (benzoxy-L-alaninyl)] phosphate], the anti-tumour activity entry in data set [1] (patients with advanced progressive cancers who exhausted standard options) is given as “anti-tumour activity”. For the same compound, the “levels of toxic metabolite dFdU released relative to gemcitabine” value in data set [1] (relative to levels normally associated with gemcitabine) is given as “less than half”. For the same compound, the IC50 in the data set with SK-OV-3 (read-out: Ab IC50) was 70 nM; in the data set with SK-OV-3 (read-out: relative IC50), 60 nM; in the data set on OVCAR-3 (read-out: Ab IC50) it was above 1980 nM; in the data set with OVCAR-3 (read-out: relative IC50), 200 nM; in the data set on NCI-H460 (read-out: Ab IC50) it was 40 nM; with NCI-H460 (read-out: relative IC50), 40 nM. Further, the IC50 was above 1980 nM with HT1376 (read-out: Ab IC50); above 1980 nM with HT1376 (read-out: relative IC50); above 1980 nM in the data set with NCI-H1975 (read-out: Ab IC50); 370 nM in the data set with NCI-H1975 (read-out: relative IC50); 25 nM in the data set on A2780 (read-out: Ab IC50); 16 nM with A2780 (read-out: relative IC50). Moreover, the IC50 with 5637 (read-out: Ab IC50) was found to be 200 nM; in the data set on 5637 (read-out: relative IC50), 120 nM. Moreover, the “Max Inhibition_%” value in the data set on SK-OV-3 (SK-OV3, CTG assay) was 61.59%; with OVCAR-3, 11.76%; in the data set with NCI-H460, 91.98%; with HT1376 (CTG assay), −2.54%; with NCI-H1975 it was 37.91%; with A2780 it was 79.15%. Moreover, in the data set on 5637, the “Max Inhibition_%” value came to 77.88%.
